The values below come from publication PMC9620261 (Journal of Medicinal Chemistry, 2022).

Data set [1] has as its system D423 (ENO1–/–) glioma cells. Put plainly: In vitro cytotoxicity of prodrugs, three-cell line assay.
For data set [2] the following is noted: 20% D2O, 31P NMR; for hydrolysis in human serum/plasma: 80% human plasma/serum.
Data set [3] relates to LN319 (ENO1+/+) glioma cells. Put plainly: cells. The following applies: LN-319, 144 h, read-out: IC50 LN319 (ENO1+/+), 6 day treatment.
Data set [4] relates to ENO1–/– intracranial orthotopic tumors. The following applies: cited from earlier work; for effect on ENO1–/– intracranial orthotopic tumors: mice, 6: 10 mg/kg IV and IP, 5: 150 mg/kg IV and 100 mg/kg IP.
Data set [5] concerns D423 ENO1 (ENO1-isogenic rescue) glioma cells. The data set can be described thus: In vitro cytotoxicity of prodrugs, three-cell line assay.
The subject of data set [6] is NCI-60 cell line panel. It is filed as cell-based. The following applies: 10 μM, 24 h.
The conditions of data set [7]: 80% DMEM, 20% D2O, 31P NMR.
The subject of data set [8] is LN319 (ENO1+/+) glioma cells. The following applies: read-out: IC50 LN319 (ENO1+/+); 6 day treatment.
Where [9] appears, read: Glioma cell, 144 h, read-out: IC50 D423 (ENO1–/–), 6 day treatment.
[10] abbreviates: Glioma cell, 144 h, read-out: IC50 D423 (ENO1–/–), 1% O2 (hypoxic), 6 days.
Setting [11] is: read-out: IC50 D423 (ENO1–/–), 6 day treatment.

Read-outs that look alike come from different tables or passages of the source. Some results are limits rather than exact numbers.

Turning to `CC(C)(C)C(=O)OCOP(=O)(NCc1ccccc1)C1CCCN(O)C1=O` (stereo not drawn) [20b], in data set [1] (setting [9]), the IC50 turned out to be 0.243 µM.
Regarding `CC(C)OC(=O)[C@H](C)NP(=O)(OCOC(=O)C(C)(C)C)C1CCCN(O)C1=O` (stereo partly drawn) [20o], in data set [1] (setting [9]), the IC50 turned out to be 0.202 µM.
With `CC(C)OC(=O)[C@H](C)N[P@](=O)(CO[C@H](C)Cn1cnc2c(N)ncnc21)Oc1ccccc1` [TAF, tenofovir alafenamide, reference compound], the “hydrolysis in human serum/plasma” value in data set [2] is “occurs rapidly”.
On to `O=C1C(P(=O)(O)O)CCCN1O` (stereo not drawn) [compound 5], for which, in data set [3], the IC50 is above 300 µM. Also, the “effect on ENO1–/– intracranial orthotopic tumors” value in data set [4] is listed as “profound tumor regression”.
For `CC(C)(C)C(=O)OCOP(=O)(OCOC(=O)C(C)(C)C)C1CCCN(O)C1=O` (stereo not drawn) [compound 6, POMHEX], the “hydrolysis in human serum/plasma” value in data set [2] is “rapidly hydrolyzed to the mono-POM ester intermediate”. In addition, the drug-related adverse events result in data set [4] (50 day in vivo evaluation) is reported as “no drug-related adverse events were observed”. Besides, in data set [4], the “effect on ENO1–/– intracranial orthotopic tumors” value is reported as “profound tumor regression”. For the same molecule, the IC50 in data set [1] (setting [10]) worked out at 0.201 µM; in data set [1] (Glioma cell, 144 h, read-out: IC50 D423 (ENO1–/–), 21% O2, 6 days), 0.079 µM.
For the molecule `CC(C)OC(=O)[C@H](C)NP(=O)(Oc1ccccc1)C1CCCN(O)C1=O` (stereo partly drawn) [compound 17], in data set [2] (80% human plasma, 37 °C), the “time prodrug remains stable/intact in human serum/plasma” value is reported as “over 9 h”. In data set [2], the “hydrolysis in human serum/plasma” value is on record as “incomplete even after 336 h”.
Take `CC(=O)ON1CCCC(P(=O)(NCc2ccccc2)OCc2ccc([N+](=O)[O-])o2)C1=O` (stereo not drawn) [compound 24]: in data set [1] (setting [10]), the IC50 amounted to 0.136 µM.
For the molecule `O=C1C(P(=O)(NCc2ccccc2)Oc2ccc(F)cc2)CCCN1O` (stereo not drawn) [compound 26, 4-Fluorophenyl N-Benzyl-P-(1-hydroxy-2-oxopiperidin-3-yl)phosphonamidate], the IC50 was above 100 µM in data set [5] (Glioma cell, 144 h, read-out: IC50 D423 ENO1 (ENO1-tg), 6 day treatment) and above 100 µM in data set [1] (setting [9]).
Consider `CCCCCCCCCCCCCCCCOCCCOP(=O)(O)C1CCCN(O)C1=O` (stereo not drawn) [compound 28], for which the “Average % Growth: Melanoma” value in data set [6] worked out at 5%.
`CC(C)C(=O)ON1CCCC(P2(=O)OCc3ccccc3O2)C1=O` (stereo not drawn) [compound 30, 3-(2-Oxido-4H-benzo[d][1,3,2]dioxaphosphinin-2-yl)-2-oxopiperidin-1-yl Isobutyrate]: in data set [7], the “time by which no intact prodrug is present in cell culture media” value is recorded as at most 3 h. Moreover, the “time by which no intact prodrug is detectable in human plasma/serum” value in data set [2] (80% human plasma, 37 °C) was at most 3 h.
As to “Bis(cyanomethyl)(1-hydroxy-2-oxopiperidin-3-yl)phosphonate [compound 29]”, the “t1/2 in human plasma” value in data set [2] (80% human plasma, 37 °C) is “approximately 10 h”. Also, the IC50 in data set [8] and in data set [1] (setting [11]) was above 100 µM throughout.
For the molecule “Cyanomethyl N-Benzyl-P-(1-hydroxy-2-oxopiperidin-3-yl)phosphonamidate [compound 25]”, the IC50 is above 70 µM in data set [5] (read-out: IC50 D423 ENO1 (ENO1-tg), 6 day treatment); 6.68 µM in data set [1] (setting [11]); around 7 µM in data set [1] (read-out: IC50 in D423 cells, 6 day treatment).
